Results as given in patent US12227551B2, “Membrane bound IL12 compositions and methods for tunable regulation” (Obsidian Therapeutics, Inc., priority 2018, dated 2025).

System: primary human T cells
Assay: Surface CAR and surface IL12 in CAR+ gate after 20 hours vardenafil, CD19-CAR-P2A-mbIL12-PDE5 constructs (Example 8; Table 22)
Format: cell-based
Conditions: 5 μM Vardenafil, CAR+ cell gate, regulated CD19-CAR-P2A-mbIL12-PDE5 constructs
Procedure: On day 0, primary human T cells were stimulated with Dynabeads (T-expander CD3/CD28) at a 3:1 bead: cell ratio in media containing 10% fetal bovine serum (FBS). The next day, lentivirus produced with constructs OT-001407 (CAR only control), OT-001895, OT-001894, OT-001891, OT-002044 were added in the presence of reduced serum (5% FBS). On day 2, the cells were diluted 1:2 with fresh 10% FBS media. […] After overnight incubation, transduction efficiency was analyzed by flow cytometry using CD19-Fc to detect surface CAR expression. Surface IL12 expression within the CAR+ cell gate was detected with an anti-IL12p70 antibody (BD, Franklin Lakes, N.J.) and is shown in Table 22.

With `CCCc1nc(C)c2c(=O)[nH]c(-c3cc(S(=O)(=O)N4CCN(CC)CC4)ccc3OCC)nn12` [vardenafil, Vardenafil] the “increases in expression of surface IL12 compared to vehicle control” value was 17-24 fold.
